Measured values reported in ChEMBL document CHEMBL5346964, “Discovery of LNP1892: A Precision Calcimimetic for the Treatment of Secondary Hyperparathyroidism” (J Med Chem, 2023).
pIC50: −log10 of the molar value.

Experiments:
[1] = Plasma clearance in BALB/c mouse at 1 mg/kg, iv measured upto 24 hrs by LC/MS-MS analysis; assay type: ADME, organism-based
[2] = Apparent permeability across basolateral to apical side in human Caco-2 cells at 5 uM measured after 30 to 120 mins by LC-MS/MS analysis; assay type: ADME, cell-based; conditions: time 30-120 min
[3] = Toxicity in rat assessed as NOAEL; conditions: in vivo
CYP2D6 = CYP2D6 (Homo sapiens, UniProt P10635); experiment: Inhibition of CYP2D6 in human liver microsomes at 10 uM preincubated for 5 mins followed by NADPH addition by LC-MS/MS analysis relative to control; assay type: ADME, Microsome
Sequence of CYP2D6 (P10635 whole entry): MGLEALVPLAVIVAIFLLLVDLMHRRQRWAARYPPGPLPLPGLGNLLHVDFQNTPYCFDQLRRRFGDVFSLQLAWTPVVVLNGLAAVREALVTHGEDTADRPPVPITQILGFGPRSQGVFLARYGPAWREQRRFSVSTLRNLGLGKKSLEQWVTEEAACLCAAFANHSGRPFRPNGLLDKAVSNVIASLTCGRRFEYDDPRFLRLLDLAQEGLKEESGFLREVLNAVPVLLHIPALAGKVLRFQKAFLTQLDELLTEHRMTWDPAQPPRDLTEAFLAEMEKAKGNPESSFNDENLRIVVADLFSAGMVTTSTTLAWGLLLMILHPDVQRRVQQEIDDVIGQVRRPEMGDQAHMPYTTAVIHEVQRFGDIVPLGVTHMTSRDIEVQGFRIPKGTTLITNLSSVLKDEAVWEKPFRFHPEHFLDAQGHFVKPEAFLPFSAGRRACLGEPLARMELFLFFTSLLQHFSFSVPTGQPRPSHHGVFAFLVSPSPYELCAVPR

[4] = AUC(0 to 24 hrs) in Sprague-Dawley rat at 300 mg/kg; assay type: ADME, organism-based; set-up: dose 300 mg/kg; conditions: in vivo
[5] = Cmax in cynomolgus monkey at 5 mg/kg, po measured upto 24 hrs by LC/MS-MS analysis; assay type: ADME, organism-based, Macaca fascicularis; set-up: time < 24 hrs, dose 5 mg/kg, route po; conditions: in vivo
[6] = Volume of distribution at steady state in BALB/c mouse at 1 mg/kg, iv measured upto 24 hrs by LC/MS-MS analysis; assay type: ADME, organism-based; conditions: in vivo, read-out: Vdss
[7] = Kinetic solubility of compound in FeSSIF upto 500 uM measured after 16 hrs under shaking condition by UV-visible method; assay type: physicochemical; conditions: read-out: Kinetic_solubility
[8] = Stability in mouse plasma measured up to 4 hrs by LC-MS/MS method; assay type: ADME, cell-free; conditions: read-out: Stability
[9] = Oral bioavailability in Sprague-Dawley rat at 10 mg/kg administered as solution measured upto 24 hrs by LC-MS/MS analysis; assay type: ADME, organism-based; conditions: in vivo
[10] = Kinetic solubility of compound upto 500 uM in 0.1N NaOH measured after 16 hrs under shaking condition by UV-visible method; assay type: physicochemical; conditions: read-out: Kinetic_solubility
[11] = Half life in Beagle dog at 1 mg/kg, iv measured upto 24 hrs by LC/MS-MS analysis; assay type: ADME, organism-based, Canis lupus familiaris; conditions: in vivo
[12] = Genotoxicity in Salmonella typhimurium by Ames test; assay type: toxicity; conditions: salmonella enterica subsp. enterica serovar typhimurium
[13] = Volume of distribution at steady state in Sprague-Dawley rat at 1 mg/kg, iv measured upto 24 hrs by LC/MS-MS analysis; assay type: ADME, organism-based; conditions: in vivo, read-out: Vdss
[14] = Chemical stability of the compound in FaSSIF measured after 0.5 to 4 hrs; assay type: physicochemical; conditions: simulated gi fluid; time 0.5-4 hrs
[15] = Chemical stability of the compound in SGF measured after 0.5 to 4 hrs; assay type: physicochemical; conditions: simulated gi fluid; time 0.5-4 hrs
Rattus norvegicus [16] = experiment: Acute effect on parathyroid hormone in overnight fasted adenine diet-induced chronic kidney disease Wistar rat model assessed as reduction in plasma PTH level at 10 mg/kg, po measured after 1 hrs of post treatment by sandwich ELISA analysis; assay type: functional; set-up: scale not given: the % may be the effect or the level left
[17] = Protein binding in human plasma incubated for 16 hrs under shaking condition by rapid equilibrium dialysis based LC-MS/MS method; assay type: ADME, cell-free; conditions: read-out: PPB
Rattus norvegicus [18] = experiment: Acute effect on parathyroid hormone in overnight fasted adenine diet-induced chronic kidney disease Wistar rat model assessed as reduction in plasma PTH level at 3 mg/kg, po measured after 2 hrs of post treatment by sandwich ELISA analysis; assay type: functional; set-up: scale not given: the % may be the effect or the level left
[19] = Effect on parathyroid hormone in overnight fasted Sprague-Dawley rat assessed as reduction in plasma PTH level at 10 mg/kg, po measured after 6 hrs of post treatment by sandwich ELISA analysis (reference value: 33%); assay type: functional; set-up: scale not given: the % may be the effect or the level left
[20] = Cmax in human at 10 mg/kg, po administered as single dose; assay type: ADME, organism-based; set-up: dose 10 mg/kg, route po; conditions: in vivo
[21] = Metabolic stability in human liver S9 fraction measured upto 60 mins by LC-MS/MS method; assay type: ADME, subcellular; conditions: read-out: Stability
[22] = Drug excretion in BALB/c mouse assessed as drug recovery in urine at 1 mg/kg, iv; assay type: ADME, organism-based; conditions: read-out: Drug recovery
[23] = Chemical stability of the compound at pH 9 measured after 0.5 to 4 hrs; assay type: physicochemical; conditions: buffer, time 0.5-4 hrs
[24] = Tmax in Sprague-Dawley rat at 10 mg/kg, po administered as suspension measured upto 24 hrs by LC-MS/MS analysis; assay type: ADME, organism-based; conditions: in vivo
[25] = Cmax in Beagle dog at 5 mg/kg, po measured upto 24 hrs by LC/MS-MS analysis; assay type: ADME, organism-based, Canis lupus familiaris; set-up: dose 5 mg/kg, time < 24 hrs, route po; conditions: in vivo
[26] = Kinetic solubility of compound upto 500 uM at pH 2 measured after 16 hrs under shaking condition by UV-visible method; assay type: physicochemical; conditions: buffer, read-out: Kinetic_solubility
[27] = Cmax in Sprague-Dawley rat at 1 mg/kg, iv measured upto 24 hrs by LC-MS/MS analysis; assay type: ADME, organism-based; set-up: dose 1 mg/kg, time < 24 hrs, route iv; conditions: in vivo
[28] = Drug excretion in BALB/c mouse assessed as drug recovery in feces at 10 mg/kg, po; assay type: ADME, organism-based; conditions: faeces, read-out: Drug recovery
[29] = Tmax in Sprague-Dawley rat at 1 mg/kg, iv measured upto 24 hrs by LC-MS/MS analysis; assay type: ADME, organism-based; conditions: in vivo
[30] = Metabolic stability in dog liver S9 fraction measured upto 60 mins by LC-MS/MS method; assay type: ADME, subcellular, Canis lupus familiaris; conditions: read-out: Stability
Cytochrome P450 2A6 = biological target: T1, Cytochrome P450 2A6 (Homo sapiens, UniProt P11509); experiment: Inhibition of CYP2A6 in human liver microsomes preincubated for 5 mins followed by NADPH addition by LC-MS/MS analysis; assay type: ADME, Microsome
T1 sequence (P11509 whole entry): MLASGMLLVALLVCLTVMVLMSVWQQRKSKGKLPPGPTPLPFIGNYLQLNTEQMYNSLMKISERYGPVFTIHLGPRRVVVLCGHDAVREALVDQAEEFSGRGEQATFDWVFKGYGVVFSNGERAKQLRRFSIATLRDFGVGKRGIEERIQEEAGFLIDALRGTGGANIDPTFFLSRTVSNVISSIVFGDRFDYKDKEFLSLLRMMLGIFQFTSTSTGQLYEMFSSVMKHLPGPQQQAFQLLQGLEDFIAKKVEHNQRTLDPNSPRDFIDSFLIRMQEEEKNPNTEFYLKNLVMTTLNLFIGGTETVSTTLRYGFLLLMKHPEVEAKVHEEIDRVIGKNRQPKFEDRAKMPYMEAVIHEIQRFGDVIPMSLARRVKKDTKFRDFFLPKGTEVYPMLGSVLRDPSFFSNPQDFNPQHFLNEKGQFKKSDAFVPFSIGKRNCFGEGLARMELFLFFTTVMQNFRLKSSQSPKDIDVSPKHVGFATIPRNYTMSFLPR

[31] = AUC in mouse at 50 mg/kg per day, po via gavage administered for 13 weeks; assay type: ADME, organism-based; set-up: dose 50 mg/kg, time 13 weeks, route po; conditions: in vivo
[32] = Clearance in Sprague-Dawley rat at 10 mg/kg, po administered as solution measured upto 24 hrs by LC-MS/MS analysis; assay type: ADME, organism-based; conditions: in vivo
[33] = Apparent permeability across apical to basolateral side in human Caco-2 cells at 5 uM measured after 30 to 120 mins by LC-MS/MS analysis; assay type: ADME, cell-based; conditions: time 30-120 min
[34] = Tmax in Sprague-Dawley rat at 300 mg/kg; assay type: ADME, organism-based; conditions: in vivo
[35] = Stability in dog plasma measured up to 4 hrs by LC-MS/MS method; assay type: ADME, cell-free, Canis lupus familiaris; conditions: read-out: Stability
[36] = Plasma clearance in cynomolgus monkey at 1 mg/kg, iv measured upto 24 hrs by LC/MS-MS analysis; assay type: ADME, organism-based, Macaca fascicularis
[37] = AUC(0 to t) in human at 25 mg/kg, po administered as multiple dose on day 8; assay type: ADME, organism-based; set-up: dose 25 mg/kg, route po; conditions: in vivo
[38] = Chemical stability of the compound in 0.1N NaOH measured after 0.5 to 4 hrs; assay type: physicochemical; conditions: time 0.5-4 hrs

With `Cc1ccc([C@@H]2C[C@H](CN[C@H](C)c3cccc4ccccc34)Oc3ccccc32)cc1C(=O)O.Cl` the clearance [1] was 2.6 mL/min/kg, the Papp B→A at 5 µM [2] was 6.3 ×10⁻⁶ cm/s and the NOAEL [3] was 25 mg/kg/day. It also gave an inhibition at 10 µM (CYP2D6) of 0%, an AUC(0-t) [4] of 1020 µM·h and a Cmax [5] of 400 nM. The Vd [6] was 0.6 L/kg, the solubility kinetic at 16 h, 500 µM [7] was greater than 300 µM and the remaining at 4 h [8] was greater than 80%. The bioavailability [9] was 99%, the solubility kinetic at 16 h, 500 µM [10] was greater than 300 µM and the half-life [11] was 5 h. For the same compound, the Activity [12] was “Non-Toxic”, the Vd [13] was 1 L/kg and the Stability [14] was “Stable”. The Stability [15] was “Stable”, the Activity (Rattus norvegicus [16]) was 96% and the fraction unbound at 16 h [17] was less than 0.01. The Activity (Rattus norvegicus [18]) was 96%, the Activity [19] was 45% and the Cmax [20] was 202 ng/mL. For the same compound, the remaining at 1 h [21] was greater than 80%, the dose excreted [22] was less than 1% and the Stability [23] was “Stable”. It also gave a Tmax [24] of 1 h, a Cmax [25] of 11000 nM and a solubility kinetic at 16 h, 500 µM [26] greater than 300 µM. For the same compound, the Cmax [27] was 2000 nM, the dose excreted [28] was 23% and the Tmax [29] was 4.8 min. It also gave a remaining at 1 h [30] greater than 80%, a pIC50 (Cytochrome P450 2A6) of 4.39 and an AUC at 2184 h [31] of 321 µg·h/mL. For the same compound, the CL/F [32] was 6 mL/min/kg, the Papp A→B at 5 µM [33] was 20 ×10⁻⁶ cm/s and the Tmax [34] was 1 h. It also gave a remaining at 4 h [35] greater than 80%, a clearance [36] of 151 mL/min/kg and an AUC(0-t) [37] of 5.09 µg·h/mL. For the same compound, the Stability [38] was “Stable”.
